The source of these data is patent US12708622B2, “Methods of treating cancer and inhibiting TYK2 and MEK” (Washington University, priority 2021, dated 2026).

Molecules are shown by their SMILES.

In data set [1] the test system is WU-386 MPNST xenograft. Briefly: MPNST xenograft tumor growth in NRG mice. To be noted: WU-386 in NRG mice; daily oral gavage; single agents.
Data set [2] concerns JW23.3, JH-2-002, WU-356 and WU-386 cells. Kind of data set: IncuCyte cell confluence IC50 across the MPNST cell line panel. Type of data set: cell-based, murine and human. To be noted: 72 h, 3 days, read-out: IC50 for inhibition of cell confluence, range over cell lines.
Method: (§2) MPNST cell lines were plated at 2500 cells/well in 96 well plates in growth media and incubated overnight. […] Cells were imaged every 1-2 hours by IncuCyte Zoom Live-Cell Analysis System (Essen Bioscience, Sartorius, Ann Arbor, MI). Cell proliferation was determined as percent confluence from phase images and was analyzed by IncuCyte image analysis software (Sartorius). […] IC50 values were calculated in GraphPad Prism version 9 (GraphPad Software, San Diego, CA).
For data set [3], the system named is WU-356 cells. Kind of data set: IncuCyte live cell proliferation assay (percent cell confluence). Type of data set: cell-based, human. The following applies: 3 days.
Method: (§3) To gain further insight into the role of TYK2 in MPNST, the effect of pharmacologic inhibition of TYK2 was examined using IncuCyte Live Cell Imaging experiments for proliferation and cell death assay with YOYO-1 green fluorescent dye.
as §2
The subject of data set [4] is JH-2-002 cells. Described as above.
Method: as §3
(§4) MPNST cell lines were plated at 2500 cells/well in 96 well plates in growth media and incubated overnight. […] Cells were imaged every 1-2 hours by IncuCyte Zoom Live-Cell Analysis System (Essen Bioscience, Sartorius, Ann Arbor, MI). Cell proliferation was determined as percent confluence from phase images and was analyzed by IncuCyte image analysis software (Sartorius). For cell death assays, 50 nmol/L YOYO-1 green fluorescent dye (Thermo Fisher) was added to treatment medium, and apoptosis was calculated as green objects normalized to the confluency factor and the initial timepoint. IC50 values were calculated in GraphPad Prism version 9 (GraphPad Software, San Diego, CA).
Data set [5] has as its system WU-386 cells. The data set is described as above. To be noted: 3 days. The format is cell-based, human.
Method: as §3, §2
Data set [6] is described as follows: Mouse body weight and health in the MPNST tumor models. Also on record: species or system mice. To be noted: in vivo. The method, then:
. […] Mouse body weight, an indicator of health, was measured 2-3 times per week.

Data set [7] deals with JW23.3 MPNST xenograft tumors. Kind of data set: MPNST tumor growth in immunocompetent C57BL6 mice. The following applies: JW23.3 in immunocompetent mice; daily oral gavage; 1.5 mg/kg deucravacitinib, 30 mg/kg mirdametinib (FIG. 10 legend).
The test system of data set [8] is JW23.3 cells. Briefly: IncuCyte live cell proliferation assay (percent cell confluence). The format is cell-based, murine.
Method: as §3, §4
Data set [9] deals with JAK1-3. To be noted: at clinically relevant doses; cited from earlier work.
The test system of data set [10] is JW23.3 cells. Briefly: IncuCyte cell death assay with YOYO-1 green fluorescent dye (apoptosis). To be noted: 72 hours.
Method: as §3, §4
The subject of data set [11] is 2-009 cells. Kind of data set: IncuCyte live cell imaging assay (cell confluence). The format is cell-based. To be noted: over 3 days. The method, then: (§1) Cell confluence and apoptosis were analyzed by IncuCyte live cell imaging assays. Drug combination synergy was calculated using Synergy Finder software.
Data set [12] deals with 2-009 cells. Kind of data set: IncuCyte assay with YOYO-1 green fluorescence (apoptosis). To be noted: over 3 days. Type of data set: cell-based. The method, then: as §1

As to `O=C(NOC[C@H](O)CO)c1ccc(F)c(F)c1Nc1ccc(I)cc1F` [mirdametinib], the tumor size entry in data set [1] is listed as “non-significant trend toward decreased tumor size”. Moreover, the IC50 in [2] is 0.22 to 1.33 µM; in data set [3] (Homo sapiens, 72 h, WU-356 MPNST cell line, IncuCyte, read-out: IC50 for inhibition of cell confluence), 1.33 µM; in data set [4] (Homo sapiens, 72 h, read-out: IC50 for inhibition of cell confluence), 0.22 µM; in [5] (Homo sapiens, 72 h, WU-386 MPNST cell line, IncuCyte, read-out: IC50 for inhibition of cell confluence) it was 1.06 µM. Also, the “mouse body weight / adverse health effects” value in data set [6] is given as “did not significantly decrease mouse body weight”. The “tumor volume relative to vehicle control” value in data set [7] was “nearly half the volume of vehicle control”.
On to `[2H]C([2H])([2H])NC(=O)c1nnc(NC(=O)C2CC2)cc1Nc1cccc(-c2ncn(C)n2)c1OC` [deucravacitinib], for which the tumor size result in [1] was “non-significant trend toward decreased tumor size”. In data set [8] (Mus musculus, 72 h, read-out: IC50 for inhibition of cell confluence), the concentration for half-maximal inhibition (IC50) worked out at 6.76 µM. The “proliferation (cell confluence)” value in data set [3] (WU-356 cells) and in data set [5] (WU-386 cells) was “inhibited proliferation” throughout. The “block of JAK1-3” value in data set [9] is given as “does not block JAK1-3 at clinically relevant doses”. Besides, the “percent cell confluence / proliferation” value in data set [4] (JH-2-002 cells, 72 hours) is “inhibited proliferation”. For the same molecule, in [7], the “tumor volume relative to vehicle control” value is recorded as “nearly half the volume of vehicle control”.
Turning to `N#Cc1cc(F)c(C(=O)Nc2ccnc(NC(=O)C3C[C@H]3F)c2)c(Cl)c1` (stereo partly drawn) [TC-JL-37], the apoptosis result in data set [10] and in [12] was “increased apoptosis” throughout. In addition, the cell confluence entry in data set [11] was “decreased cell confluence”. Moreover, the percent cell confluence entry in [8] (JW23.3 cells, 72 hours) is given as “decreased cell confluence”.
